Measured values taken from patent publication US6335323B1, “Compositions for the treatment of peripheral neuropathies containing antidepressants and/or monoamine oxidase inhibitors and/or vitamin B12 and/or precursors or inducers of a neurotransmitter” (The WWK Trust, priority 1996, dated 2002).

Columns and labels:
[1] = test system: diabetic neuropathy; experiment: Clinical case reports of patients with diabetic neuropathy; type: in vivo, human; conditions: single patient case reports; result in words
Description: The onset of neuropathy was thought to be due to poor control of diabetes. Neuropathic symptoms increased in severity over several years with development of severe diabetic neuropathy including diabetic amyotrophy, painful neuropathy with spasm, diabetic autonomic neuropathy and decreased sensation in the extremities, with numbing and loss of vibration sense. Electromyography confirmed the diagnosis of diabetic neuropathy.
A person with non-insulin dependent diabetes with very severe diabetic neuropathy, including diabetic amyotrophy and bedbound, resistant to current therapies, was commenced on vitamin B12 injections (1 mg at two-week intervals) and L-phenylalanine (as a metabolite of aspartame) 500 mg twice a day.
This case studied here is of the same person with diabetic neuropathy as in case #1, but after the original observation in case #1. The patient was subsequently continued on the same vitamin B12 injections and phenylalanine (500 mg twice daily) only.
A person with non-insulin dependent diabetes for 15 years with reasonable control, developed peripheral painful diabetic neuropathy of two months duration. […]
A person had severe diabetic peripheral neuropathy and resultant Charcot foot joints. […] Vibration sense initially could not be detected at a level below the knee.

[2] = test system: vitamin B12 neuropathy and mild alcoholic neuropathy; experiment: Clinical case report, vitamin B12 neuropathy and mild alcoholic neuropathy (Case #4); type: in vivo, human; conditions: result in words
Description: A person with vitamin B12 neuropathy and mild alcoholic neuropathy was studied. Clinical progress with vitamin B12 injections alone was insignificant. […] Previously they required the assistance of another person to walk.

[3] = test system: neuropathy related to HIV; experiment: Clinical case report, HIV related peripheral neuropathy (Case #9); type: in vivo, human; conditions: result in words
Protocol: A person was HIV positive and complained of moderate peripheral neuropathy including painful neuropathy. They also had mild diabetes of short duration but clinically their neuropathy was diagnosed as that related to HIV. […] They were additionally commenced on L-phenylalanine 500 mg twice daily, whereafter they reported an approximate further 50% improvement in the symptoms of their painful neuropathy.

[4] = test system: diabetic neuropathy; conditions: cited from earlier work; for effectiveness against diabetic neuropathy symptoms: prior art statement

CN(C)CC/C=C1\c2ccccc2CSc2ccccc21 [dothiepin]
clinical response of diabetic neuropathy signs and symptoms [1]: mild beneficial effect

vitamin B12
clinical progress [2]: insignificant

CN(C)CCC=C1c2ccccc2CCc2ccccc21 [amitriptyline]
clinical effect on neuropathy [3]: some mild beneficial effects

CCCCC/C=C\C/C=C\C/C=C\CCCCC(=O)O [gamolenic acid]
effectiveness against diabetic neuropathy symptoms [4]: may reduce symptoms | progression of abnormalities in nerve conduction studies ([4]; recent clinical trials): prevent the progression

Cc1cccc(C)c1OCC(C)N (centres unmarked) [mexilitene]
effectiveness against diabetic neuropathy symptoms [4]: only to be mildly effective

NC(=O)N1c2ccccc2C=Cc2ccccc21 [carbemazepine]
clinical response of diabetic neuropathy signs and symptoms [1]: ineffective | effectiveness against diabetic neuropathy symptoms [4]: only to be mildly effective
